Data: PubChem BioAssay (NCI)
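96-well plates; 48 h exposure; 5 concentrations. Endpoints by linear interpolation between flanking doses. Not reached: highest tested concentration assigned. The concentration for full growth arrest is given as TGI.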

How the values were obtained:
Experiment in all cases: NCI anticancer screen, dose series, 48 h
[1] = test system: BT-549 breast
[2] = test system: DLD-1 colon
[3] = test system: DMS 114 small cell lung
[4] = test system: DMS 273 small cell lung
[5] = test system: KM20L2 colon
[6] = test system: M19-MEL melanoma
[7] = test system: MDA-N
[8] = test system: RXF-631 renal
[9] = test system: XF 498 CNS

## CCOC(=O)c1c(C)c(C)n2c1NC(=O)C2
[1]
  TGI: > 100 µM
[2]
  TGI: > 100 µM
[3]
  TGI: > 100 µM
[4]
  TGI: > 100 µM
[5]
  TGI: > 100 µM
[6]
  TGI: > 100 µM
[7]
  TGI: > 100 µM
[8]
  TGI: > 100 µM
[9]
  TGI: 61.1 µM
